Laboratory results taken from PubChem BioAssay AID1963866 (Molecular Pharmacology Branch, DTP, NCI, 2024).

Tested on: PDC KRAS tumor spheroids with HUVEC/MSC, viability
Experiment: Anticancer human tumor 349418-098-R-PDC patient-derived lung adenocarcinoma cell line growth inhibition [KRAS2]
Conditions: for IC50: curve of first compound; for viability, T/C: stronger effect = lower value
In short: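 Combination screen of spheroid viability in tumor-cell co-cultures with endothelial (HUVEC) and mesenchymal stem cell stroma. Each agent was tested in half-log dilutions, topping at clinical Cmax or at 10 microM without a known Cmax.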

[1] = second compound 0.0316 µM, first compound 0.000316 µM
[2] = second compound 0.0316 µM, first compound 0.001 µM
[3] = second compound 0.0316 µM, first compound 0.00316 µM
[4] = second compound 0.0316 µM, first compound 0.01 µM
[5] = second compound 0.0316 µM, first compound 0.0316 µM
[6] = second compound 0.1 µM, first compound 0.000316 µM
[7] = second compound 0.1 µM, first compound 0.001 µM
[8] = second compound 0.1 µM, first compound 0.00316 µM
[9] = second compound 0.1 µM, first compound 0.01 µM
[10] = second compound 0.1 µM, first compound 0.0316 µM
[11] = second compound 0.316 µM, first compound 0.000316 µM
[12] = second compound 0.316 µM, first compound 0.001 µM
[13] = second compound 0.316 µM, first compound 0.00316 µM
[14] = second compound 0.316 µM, first compound 0.01 µM
[15] = second compound 0.316 µM, first compound 0.0316 µM
[16] = second compound 1 µM, first compound 0.000316 µM
[17] = second compound 1 µM, first compound 0.001 µM
[18] = second compound 1 µM, first compound 0.00316 µM
[19] = second compound 1 µM, first compound 0.01 µM
[20] = second compound 1 µM, first compound 0.0316 µM
[21] = second compound 3.16 µM, first compound 0.000316 µM
[22] = second compound 3.16 µM, first compound 0.001 µM
[23] = second compound 3.16 µM, first compound 0.00316 µM
[24] = second compound 3.16 µM, first compound 0.01 µM
[25] = second compound 3.16 µM, first compound 0.0316 µM
[26] = second compound 0.0316 µM, first compound 0.1 µM
[27] = second compound 0.1 µM, first compound 0.1 µM
[28] = second compound 0.316 µM, first compound 0.1 µM
[29] = second compound 1 µM, first compound 0.1 µM
[30] = second compound 3.16 µM, first compound 0.1 µM
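Note: spheroids exposed to compounds for seven days before readout.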

## CC(=O)Nc1cccc(-n2c(=O)n(C3CC3)c(=O)c3c(Nc4ccc(I)cc4F)n(C)c(=O)c(C)c32)c1 + C=CC(=O)N1CCN(c2nc(OCC3CCCN3C)nc3c2CCN(c2cccc4cccc(C)c24)C3)CC1CC#N
Second compound 0.0316 µM
  IC50: < 0.1 nM
Second compound 0.1 µM
  IC50: < 0.1 nM
Second compound 0.316 µM
  IC50: < 0.1 nM
Second compound 1 µM
  IC50: < 0.1 nM
Second compound 3.16 µM
  IC50: < 0.1 nM
Second compound 0.0316 µM, first compound 0.0001 µM
  viability, T/C: 41.1%
[1]
  viability, T/C: 20.2%
[2]
  viability, T/C: 14.8%
[3]
  viability, T/C: 12.2%
[4]
  viability, T/C: 8.59%
[5]
  viability, T/C: 6.57%
Second compound 0.1 µM, first compound 0.0001 µM
  viability, T/C: 34.7%
[6]
  viability, T/C: 20.9%
[7]
  viability, T/C: 16.1%
[8]
  viability, T/C: 10.9%
[9]
  viability, T/C: 9.4%
[10]
  viability, T/C: 6.86%
Second compound 0.316 µM, first compound 0.0001 µM
  viability, T/C: 35.8%
[11]
  viability, T/C: 21.8%
[12]
  viability, T/C: 16.8%
[13]
  viability, T/C: 12.6%
[14]
  viability, T/C: 8.68%
[15]
  viability, T/C: 6.94%
Second compound 1 µM, first compound 0.0001 µM
  viability, T/C: 30.4%
[16]
  viability, T/C: 23.3%
[17]
  viability, T/C: 13.3%
[18]
  viability, T/C: 9.39%
[19]
  viability, T/C: 7.58%
[20]
  viability, T/C: 6.58%
Second compound 3.16 µM, first compound 0.0001 µM
  viability, T/C: 0.51%
[21]
  viability, T/C: 0.21%
[22]
  viability, T/C: 0.19%
[23]
  viability, T/C: 0.46%
[24]
  viability, T/C: 0.21%
[25]
  viability, T/C: 0.34%

## CC(C)n1nc(-c2ccc3oc(N)nc3c2)c2c(N)ncnc21 + C=CC(=O)N1CCN(c2nc(OCC3CCCN3C)nc3c2CCN(c2cccc4cccc(C)c24)C3)CC1CC#N
Second compound 0.0316 µM
  IC50: 1.04 nM
Second compound 0.1 µM
  IC50: 0.76 nM
Second compound 0.316 µM
  IC50: 0.891 nM
Second compound 1 µM
  IC50: 0.673 nM
Second compound 3.16 µM
  IC50: < 0.316 nM
[1]
  viability, T/C: 91.5%
[2]
  viability, T/C: 51.2%
[3]
  viability, T/C: 14.9%
[4]
  viability, T/C: 9.06%
[5]
  viability, T/C: 8.26%
[26]
  viability, T/C: 8.57%
[6]
  viability, T/C: 95.8%
[7]
  viability, T/C: 35.6%
[8]
  viability, T/C: 13.9%
[9]
  viability, T/C: 8.16%
[10]
  viability, T/C: 7.73%
[27]
  viability, T/C: 7.41%
[11]
  viability, T/C: 92.3%
[12]
  viability, T/C: 45.2%
[13]
  viability, T/C: 18%
[14]
  viability, T/C: 9.14%
[15]
  viability, T/C: 7.31%
[28]
  viability, T/C: 7.9%
[16]
  viability, T/C: 71.8%
[17]
  viability, T/C: 38.3%
[18]
  viability, T/C: 17.3%
[19]
  viability, T/C: 7.45%
[20]
  viability, T/C: 6.31%
[29]
  viability, T/C: 6.74%
[21]
  viability, T/C: 1%
[22]
  viability, T/C: 0.25%
[23]
  viability, T/C: 1.1%
[24]
  viability, T/C: 0.13%
[25]
  viability, T/C: 0.22%
[30]
  viability, T/C: 0.17%

## CC1(C)CCC(CN2CCN(c3ccc(C(=O)NS(=O)(=O)c4ccc(NCC5CCOCC5)c([N+](=O)[O-])c4)c(Oc4cnc5[nH]ccc5c4)c3)CC2)=C(c2ccc(Cl)cc2)C1 + C=CC(=O)N1CCN(c2nc(OCC3CCCN3C)nc3c2CCN(c2cccc4cccc(C)c24)C3)CC1CC#N
Second compound 0.0316 µM
  IC50: 1680 nM
Second compound 0.1 µM
  IC50: 1340 nM
Second compound 0.316 µM
  IC50: 1510 nM
Second compound 1 µM
  IC50: 1180 nM
Second compound 3.16 µM
  IC50: < 31.6 nM
[5]
  viability, T/C: 97.5%
[26]
  viability, T/C: 100%
Second compound 0.0316 µM, first compound 0.316 µM
  viability, T/C: 89.4%
Second compound 0.0316 µM, first compound 1 µM
  viability, T/C: 80%
Second compound 0.0316 µM, first compound 3.16 µM
  viability, T/C: 13.8%
Second compound 0.0316 µM, first compound 10 µM
  viability, T/C: 4.29%
[10]
  viability, T/C: 96.2%
[27]
  viability, T/C: 94.8%
Second compound 0.1 µM, first compound 0.316 µM
  viability, T/C: 76.5%
Second compound 0.1 µM, first compound 1 µM
  viability, T/C: 66.2%
Second compound 0.1 µM, first compound 3.16 µM
  viability, T/C: 13.6%
Second compound 0.1 µM, first compound 10 µM
  viability, T/C: 4.13%
[15]
  viability, T/C: 92.6%
[28]
  viability, T/C: 87.5%
Second compound 0.316 µM, first compound 0.316 µM
  viability, T/C: 77.1%
Second compound 0.316 µM, first compound 1 µM
  viability, T/C: 72.1%
Second compound 0.316 µM, first compound 3.16 µM
  viability, T/C: 10.9%
Second compound 0.316 µM, first compound 10 µM
  viability, T/C: 3.73%
[20]
  viability, T/C: 76.8%
[29]
  viability, T/C: 75%
Second compound 1 µM, first compound 0.316 µM
  viability, T/C: 68.2%
Second compound 1 µM, first compound 1 µM
  viability, T/C: 57.7%
Second compound 1 µM, first compound 3.16 µM
  viability, T/C: 4.26%
Second compound 1 µM, first compound 10 µM
  viability, T/C: 1.75%
[25]
  viability, T/C: 0.15%
[30]
  viability, T/C: 0.15%
Second compound 3.16 µM, first compound 0.316 µM
  viability, T/C: 0.14%
Second compound 3.16 µM, first compound 1 µM
  viability, T/C: 0.2%
Second compound 3.16 µM, first compound 3.16 µM
  viability, T/C: 0.09%
Second compound 3.16 µM, first compound 10 µM
  viability, T/C: 0.11%
